Measurements from US12594266B2, “Triterpenoid antifungals for the treatment or prevention of Pneumocystis spp. pneumonia” (priority 2019, dated 2026).

Assays:
P. murina [1] = assay: Mouse model of treatment of PCP, 28-42 days (Balb/c mice); assay type: in vivo, Pneumocystis murina
Method: Compound Preparation: SCY-078 (ibrexafungerp) was prepared in 0.5% methyl cellulose for oral administration. A correction factor of 1.37 was taken into account for salt and water content. […]
P. murina treatment study methods: Balb/c mice ordered from Charles River were infected with P. murina pneumonia through exposure to mice with a fulminant P. murina infection (seed mice). These mice were immune suppressed by the addition of dexamethasone at 4 mg/liter to the drinking water. Sulfuric acid at 1 ml/liter was also added to the drinking water for disinfection. The seed mice were rotated within the cages for 2 weeks and then removed. After the mice developed a moderate infection level (approximately 5 weeks), the mice were divided into a negative control group (control steroid), positive control group (TMP/SMX), and treatment groups. Drugs to be tested were administered by oral gavage (PO) on a mg/kg/BID basis for up to 6 weeks. At the end of the treatment, the mice were euthanized by CO2 and lungs were processed for analysis. Slides were made from the lung homogenates at different dilutions and stained with Diff-Quik™ to quantify the nuclei (all life cycle stages) and with cresyl echt violet to quantify the asci.
(§1) Calculations: Efficacy was based on the reduction of organism burden between the treatment groups and the negative control group as determined by microscopic evaluation. The nuclei and asci counts for each lung were log transformed and statistical analysis was determined by the analysis of variance (ANOVA); individual groups were compared by the Student-Newman-Keuls t test for multiple comparisons using GraphPad Prism. Statistical significance was accepted at a P value≤0.05.

[2] = human, in vivo
Source text: The safety and tolerability of SCY-078 has been evaluated in more than 900 subjects in ˜20 clinical trials, at different doses and treatment durations, including administration for up to 1 year. […] Serious adverse events possibly related to SCY-078 have been very rare and interruption or discontinuation of therapy due to adverse reactions has been uncommon. Additionally, the safety profile of oral SCY-078 has been evaluated in standard long-term non-clinical toxicology studies including administration for 9 months in dogs and 6 months in rats, at doses and exposures higher than those anticipated in humans, in line with ICH guidelines. The results from these non-clinical studies support the long-term administration of oral SCY-078 in humans. SCY-078 is currently under evaluation in ongoing clinical trials for the treatment of fungal infections such as candidiasis and aspergillosis. SCY-078 has not been evaluated in clinical trials for the treatment or prevention of PCP.

P. murina [3] = assay: Mouse model of treatment of PCP, early response (C3H/HeN mice); assay type: in vivo, Pneumocystis murina
P. murina [4] = assay: Mouse model of prophylaxis for PCP (C3H/HeN mice, intranasal P. murina); assay type: in vivo, Pneumocystis murina; details: for Percent Survival at Day 7 / Percent Survival at Day 14 / Percent Survival at Day 21 / Percent Survival at Day 28 / Percent Survival at Day 35 / Percent Survival at Day 42: prophylaxis, mice
Method: Compound Preparation: SCY-078 (ibrexafungerp) was prepared in 0.5% methyl cellulose for oral administration. A correction factor of 1.37 for this lot was taken into account for salt and water content. Mice in the high dose group received 0.6 mg of SCY-078 BID, mid dose group received 0.3 mg of SCY-078 BID, and low dose group received 0.15 mg of SCY-078 BID, based on average mouse weights of 20 g.
P. murina prophylaxis study method: C3H/HeN mice (Charles River) were infected by intranasal inoculation of P. murina organisms at 2×10^6/50 μl from a liquid nitrogen repository. Prior to inoculation, the P. murina were pre-incubated overnight in RPMI 1640 medium supplemented with calf serum and antibiotics to eliminate any bacterial contamination. The immune systems of the mice were suppressed by the addition of dexamethasone at 4 mg/liter to acidified drinking water (hydrochloric acid at 1 ml/liter). Acidification is used to prevent secondary microbial infections. The mice were divided into a negative (non-treated) control group (control steroid—C/S), positive control group (trimethoprim/sulfamethoxazole—TMP/SMX) and treatment groups. SCY-078 was administered orally (po) BID at the specified doses. The mice were started on the prophylaxis regimen at the same time they were inoculated. Immune suppression and treatment continued for the entire 6-week study. At the conclusion of that time, the mice were euthanized by CO2 and lungs processed for analysis by homogenization. Slides were made from the lung homogenates at different dilutions and stained with Diff-Quik to quantify total nuclei (trophic forms) and with cresyl echt violet to quantify the asci (cyst forms).
as §1

[5] = patients with HIV; cited from earlier work
[6] = 15 and 10 mg/kg groups, days 28 and 35
[7] = all dose levels (15, 10, 5 mg/kg BID po), days 28, 35 and 42
[8] = both dose levels (30 and 15 mg/kg BID po), Day 14 and Day 21
[9] = 30 mg/kg BID po, 6 weeks prophylaxis
[10] = all 3 dose levels (30, 15, 7.5 mg/kg BID po), 6 weeks prophylaxis, lung

Compound: CC(C)[C@@H](C)[C@@]1(C)CC[C@]2(C)[C@H]3CC[C@@H]4[C@@]5(COC[C@@]4(C)[C@@H](OC[C@](C)(N)C(C)(C)C)[C@H](n4ncnc4-c4ccncc4)C5)C3=CC[C@@]2(C)[C@@H]1C(=O)O [SCY-078, (1S,4aR,6aS,7R,8R,10aR,10bR,12aR,14R,15R)-15-[[(2R)-2-amino-2,3,3-trimethylbutyl]oxy]-8-[(1R)-1,2-dimethylpropyl]-14-[5-(4-pyridinyl)-1H-1,2,4-triazol-1-yl]-1,6,6a, 7,8,9,10,10a, 10b, 11,12,12a-dodecahydro-1,6a, 8,10a-tetramethyl-4H-1,4a-propano-2H-phenanthro [1,2-c]pyran-7-carboxylic acid]
- asci observed in lung (P. murina [1]; [6]): No asci were observed
- reduction of asci burden compared with positive control (TMP/SMX) (P. murina [1]; [6]): worked equally as well
- asci observed in lung (P. murina [1]; all 3 dose groups, day 42): some asci were observed
- asci burdens versus vehicle treated negative control group (C/S) (P. murina [1]; [7]): significantly reduced
- nuclei burdens versus vehicle treated negative control group (C/S) (P. murina [1]; [7]): significantly reduced
- reduction of asci burden compared with positive control (TMP/SMX) (P. murina [1]; all dose levels, day 42): worked equally well
- interruption or discontinuation of therapy due to adverse reactions [2]: uncommon
- most common adverse events [2]: mild to moderate, transient gastrointestinal disorders
- serious adverse events possibly related to SCY-078 [2]: very rare
- magnitude of the effect against nuclei burden compared with TMP/SMX (P. murina [3]; both dose levels): lower than observed with the TMP/SMX control
- asci burdens versus vehicle treated negative control group (C/S) (P. murina [3]; [8]): significantly reduced
- nuclei burdens versus vehicle treated negative control group (C/S) (P. murina [3]; [8]): significantly reduced
- extent of asci burden reduction compared with TMP/SMX (P. murina [3]; both dose levels, Day 14 and Day 21): to a similar extent
- reduction of asci burden compared with TMP/SMX (P. murina [3]; both dose levels, day 7): statistically significantly better
- Percent Survival at Day 7 (P. murina [4]; 7.5 mg/kg BID po): 100%
- Percent Survival at Day 14 (P. murina [4]; 7.5 mg/kg BID po): 90%
- Percent Survival at Day 21 (P. murina [4]; 7.5 mg/kg BID po): 90%
- Percent Survival at Day 28 (P. murina [4]; 7.5 mg/kg BID po): 90%
- Percent Survival at Day 35 (P. murina [4]; 7.5 mg/kg BID po): 90%
- Percent Survival at Day 42 (P. murina [4]; 7.5 mg/kg BID po): 90%
- Percent Survival at Day 7 (P. murina [4]; 15 mg/kg BID po): 100%
- Percent Survival at Day 14 (P. murina [4]; 15 mg/kg BID po): 90%
- Percent Survival at Day 21 (P. murina [4]; 15 mg/kg BID po): 90%
- Percent Survival at Day 28 (P. murina [4]; 15 mg/kg BID po): 80%
- Percent Survival at Day 35 (P. murina [4]; 15 mg/kg BID po): 80%
- Percent Survival at Day 42 (P. murina [4]; 15 mg/kg BID po): 80%
- reduction of asci burden compared with TMP/SMX (P. murina [4]; [9]): performed equally as well
- survival versus vehicle treated negative control group (P. murina [4]; [9]): significant improvement in survival
- Percent Survival at Day 7 (P. murina [4]; 30 mg/kg BID po): 100%
- Percent Survival at Day 14 (P. murina [4]; 30 mg/kg BID po): 100%
- Percent Survival at Day 21 (P. murina [4]; 30 mg/kg BID po): 100%
- Percent Survival at Day 28 (P. murina [4]; 30 mg/kg BID po): 100%
- Percent Survival at Day 35 (P. murina [4]; 30 mg/kg BID po): 100%
- Percent Survival at Day 42 (P. murina [4]; 30 mg/kg BID po, * statistically significant difference vs C/S group): 100* Percent
- asci burden versus vehicle treated negative control group (C/S) (P. murina [4]; [10]): significantly reduced
- nuclei burden versus vehicle treated negative control group (C/S) (P. murina [4]; [10]): significantly reduced

Compound: Trimethoprim-sulfamethoxazole [TMP/SMX, reference compound]
- hepatitis [5]: 20 % of patients
- thrombocytopenia [5]: 15 % of patients
- Percent Survival at Day 7 (P. murina [4]; 50/250 mg/kg 3x/wk): 100%
- Percent Survival at Day 14 (P. murina [4]; 50/250 mg/kg 3x/wk): 90%
- Percent Survival at Day 21 (P. murina [4]; 50/250 mg/kg 3x/wk): 90%
- Percent Survival at Day 28 (P. murina [4]; 50/250 mg/kg 3x/wk): 90%
- Percent Survival at Day 35 (P. murina [4]; 50/250 mg/kg 3x/wk): 90%
- Percent Survival at Day 42 (P. murina [4]; 50/250 mg/kg 3x/wk): 90%
